In patent US20220194997A1, “SUMO PEPTIDES FOR TREATING NEURODEGENERATIVE DISEASES” (The Chinese University of Hong Kong, priority 2019, published 2022):
Where no end group is shown, it is not given here.

What was measured:
[1] = biological target: T1, α-synuclein (Homo sapiens, UniProt P37840); assay: Fibrillation (Thioflavin T) assay of SDS-induced α-synuclein aggregation; assay type: biochemical
T1 construct: made in house; host or cells: Escherichia coli BL21(DE3), pET-28a (NcoI/XhoI)
Procedure: The reaction contained the mixture of 70 μM α-synuclein and different concentrations of SUMO1 variants, 40 μM Thioflavin T (ThT) (Sigma-Aldrich), 0.4 mM SDS in reaction buffer (20 mM HEPES, 150 mM NaCl, pH 7.4). Reactions were performed in quadruplicate in a black clear-bottomed 96-well plate (Nunc, Thermo Fisher Scientific) with a final volume of 150 μL. The plate was sealed with sealing membrane (Thermo Fisher Scientific) and loaded into an Infinite M1000 plate reader (Tecan), incubated at 37° C. without agitation. The fluorescence was detected at 30 min intervals, with excitation at 450 nm and with emission at 485 nm. Protein samples were analyzed after fibrillation assay using size-exclusion chromatography on a Superdex 200 GL 5/150 column (3 ml, GE Healthcare) in reaction buffer.
Sodium dodecyl sulfate (SDS) was added to mimic membrane environments and serve as nucleation scaffold to stimulate α-synuclein aggregation (Giehm et al., 2010).
Thioflavin T (ThT) assay was performed as previously described^5 with minor modifications. […] The potential pre-formed aggregates in α-synuclein were removed by centrifugation at 15,000 rpm for 15 min and filtering through a 0.2 μm filter before the experiments. Reactions were performed in a black clear-bottomed 96-well plate (Nunc, Thermo Fisher Scientific) sealed with clear adhesive sealing sheet (Thermo Fisher Scientific) to avoid evaporation and loaded into an Infinite® M1000 plate reader (Tecan), incubated at 37° C. for 7 days without agitation. The fluorescence was recorded at 485 nm with excitation wavelength of 450 nm at the interval of 30 min.

[2] = biological target: T1, α-synuclein; assay: Microscale thermophoresis (MST) binding
Procedure: The labelling reaction was performed according to the manufacturer's instructions. Unreacted dye was removed with the dye removal column supplied in the Protein Labelling Kit RED-NHS (NanoTemper Technologies) or desalting column (Bio-Rad). […] The labelled targets were adjusted to appropriate concentration for detection. The ligands were dissolved in reaction buffer and a series of 16 1:1 dilutions was prepared. For the measurement, each ligand dilution was mixed with one volume of labelled protein target. After 10 min incubation, the samples were loaded into standard or premium Monolith NT.115 Capillaries (NanoTemper Technologies). MST was measured using a Monolith NT.115 instrument (NanoTemper Technologies) at an ambient temperature of 25° C. Instrument parameters were adjusted to 20% LED power and medium MST power. Data of three independently pipetted measurements were analyzed (MO.Affinity Analysis software version 2.1.3, NanoTemper Technologies) using the signal from an MST-on time of 5 s.
Unreacted dye was removed with desalting column (2K MWCO, Bio-Rad). The purity was monitored by measuring the ratio of protein to dye after the clean-up procedure. […]

[3] = system: SH-SY5Y cells; assay: Cellular uptake of Alexa 488 labelled peptide, confocal microscopy; assay type: cell-based; settings: 1 h and 24 h, time course
Procedure: SH-SY5Y cells were planted on 35 mm glass bottom confocal dishes and incubated overnight. After co-incubation with Alexa 488 labelled R8-SUMO1(31-55), cells were fixed with 4% paraformaldehyde for 15 min at room temperature at different time points and visualized by Leica TCS SP8 confocal microscope with 63X oil immersion objective.

[4] = system: α-synuclein-A53T transgenic Drosophila; assay: Climbing assay after larval feeding; assay type: in vivo; settings: larval feeding 60, 120 or 240 μM, pilot study
Source text: (§1) The following fly strains were adopted in this study: gmr-GAL4 (RRID: BDSC_1104), elav-GAL4 (RRID: BDSC_458), UAS-α-synuclein-A30P (RRID: BDSC_8147), and UAS-α-synuclein-A53T (RRID: BDSC_8148). All strains were obtained from the Bloomington Drosophila Stock Center. To obtain PD model flies, virgin flies carrying the driver gmr-GAL4 or elav-GAL4 on X chromosome were crossed to males from UAS-α-synuclein-A30P/UAS-α-synuclein-A53T stocks. The progeny of these crosses was maintained on standard cornmeal medium supplemented with dry yeast in 25° C. incubator.
(§2) Climbing assay was performed according to previously described^10. Briefly, a group of 10 flies from each condition were placed in individual plastic vial, and gently tapped to the bottom of the vail. The number of flies that could climb a height of 2 cm within 15 s was recorded. Each trial was repeated five times with 1 min recovery periods between each trials. Total 20 (10 males and 10 females) flies from each condition were tested for one genetic cross.

[5] = system: α-synuclein-A30P transgenic Drosophila; assay: Climbing assay after larval feeding; assay type: in vivo; settings: larval feeding 60, 120 or 240 μM, pilot study
Source text: as §1, §2

[6] = system: α-synuclein (wild-type) transgenic Drosophila; assay: Climbing assay after larval feeding; assay type: in vivo; settings: larval feeding 60, 120 or 240 μM, pilot study
[7] = equimolar ratio (1:1), 70 μM α-synuclein, 37° C., 7 days

Molecule: CC[C@H](C)[C@H](NC(=O)[C@H](Cc1ccc(O)cc1)NC(=O)[C@H](CCC(=O)O)NC(=O)CNC(=O)[C@H](CCC(=O)O)NC(=O)[C@H](CCCCN)NC(=O)[C@H](CCCCN)NC(=O)[C@@H](N)CC(=O)O)C(=O)N[C@@H](CCCCN)C(=O)N[C@@H](CC(C)C)C(=O)N[C@@H](CCCCN)C(=O)N[C@H](C(=O)N[C@H](C(=O)NCC(=O)N[C@@H](CCC(N)=O)C(=O)N[C@@H](CC(=O)O)C(=O)N[C@@H](CO)C(=O)N[C@@H](CO)C(=O)N[C@@H](CCC(=O)O)C(=O)N[C@H](C(=O)N[C@@H](Cc1c[nH]cn1)C(=O)N[C@@H](Cc1ccccc1)C(=O)N[C@@H](CCCCN)C(=O)N[C@H](C(=O)N[C@@H](CCCCN)C(=O)N[C@@H](CCSC)C(=O)N[C@H](C(=O)N[C@H](C(=O)N[C@@H](Cc1c[nH]cn1)C(=O)N[C@@H](CCC(=O)O)C(=O)N[C@@H](CCCCN)C(=O)N[C@@H](CCCCN)C(=O)N[C@@H](CCCNC(=N)N)C(=O)N[C@@H](CCCCN)C(=O)N[C@@H](CCC(=O)O)C(=O)N[C@@H](CO)C(=O)N[C@@H](Cc1ccc(O)cc1)C(=O)N[C@@H](CS)C(=O)N[C@@H](CCC(N)=O)C(=O)N[C@@H](CCCNC(=N)N)C(=O)N[C@@H](CCC(N)=O)C(=O)O)[C@@H](C)O)[C@@H](C)O)C(C)C)[C@@H](C)CC)[C@@H](C)CC)C(C)C [SUMO1(15-55) (L44E, L47R)]
- inhibition of α-synuclein aggregation [1, 7]: much weaker inhibition effect
- binding ability to α-synuclein compared with that of SUMO1(15-55) [2]: around 1/40

Molecule: His-SUMO1(31-55): SUMO1(31-55) with an N-terminal 10×His tag ({10xHis tag}-SSEIHFKVKMTTHLKKLKESYCQRQ; UniProt P63165 31-55, looked up, fragment)
- inhibition of α-synuclein aggregation ([1]; ratio of 1:5 or 1:10 α-synuclein: SUMO peptide inhibitor): partial inhibition

Molecule: RRRRRRRRSSEIHFKVKMTTHLKKLKESYCQRQ [R8-SUMO1(31-55)]
- internalization into cells [3]: internalization into SH-SY5Y cells at a high efficiency

Molecule: SUMO1(20-40): SUMO1 derived peptide, residues 20-40 (EYIKLKVIGQDSSEIHFKVKM; UniProt P63165 20-40, looked up, fragment)
- inhibition of α-synuclein aggregation [1, 7]: not effective

Molecule: SUMO1(31-55): residues 31-55 of human SUMO1, a beta sheet followed by an alpha-helix (SSEIHFKVKMTTHLKKLKESYCQRQ)
- locomotor dysfunction (climbing) [4]: improved the locomotor dysfunction
- locomotor dysfunction (climbing) [5]: improved the locomotor dysfunction
- locomotor dysfunction (climbing) [6]: improved the locomotor dysfunction

Molecule: SUMO2(16-51): residues 16-51 of human SUMO2, identical sequence to SUMO3(15-50) (DHINLKVAGQDGSVVQFKIKRHTPLSKLMKAYCERQ; UniProt P61956 16-51, looked up, fragment)
- inhibition of α-synuclein aggregation [1, 7]: suppressed
- delay of the initiation of the aggregation ([1]; half molar ratio): 2 days
